Assay results from patent publication US8633177B2, “Nitroxyl (HNO) releasing compounds and uses thereof in treating diseases” (The United States of America, as represented by the …, priority 2010, dated 2014).
Read-outs that look alike come from different tables or passages of the source.

Legend:
caspase-3 [1] = test: Caspase-3 fluorescence assay, MDA-MB-231; type: cell-based, human; settings: 12 h
Method: (§1) The caspase-3 activity in the presence of IPA/NO-ASA and DEA/NO-ASA was measured using caspase-3 fluorescence assay kit (Cat No. 10009135, Cayman Chemical). Cells were plated at a concentration of 50,000 cells per well in a 96 well plate and grown overnight. Then the cells were treated with different concentrations of the compounds and controls for 12 h. After 12 h, the plate was centrifuged at 800 g and the media was removed by aspiration. 100 μL of lysis buffer was added to each well and the plate was incubated for […] at room temperature. 100 μL of a caspase-3 substrate solution was added to each well and incubated for 30 min after which the fluorescence was read at excitation of 485 nm and emission of 535 nm.

caspase-3 [2] = test: Caspase-3 fluorescence assay, MDA-MB-468; type: cell-based, human; settings: 12 h
Method: as §1

[3] = target: glyceraldehyde-3-phosphate dehydrogenase (GAPDH) (Homo sapiens, UniProt P04406); test: GAPDH activity, MCF-7; type: cell-based; set-up: endogenous in cells; host or cells: MDA-MB-231, MDA-MB-468, MCF-7, MCF-10A; settings: MCF-7, 100 μM
glyceraldehyde-3-phosphate dehydrogenase (GAPDH), sequence (P04406 whole entry): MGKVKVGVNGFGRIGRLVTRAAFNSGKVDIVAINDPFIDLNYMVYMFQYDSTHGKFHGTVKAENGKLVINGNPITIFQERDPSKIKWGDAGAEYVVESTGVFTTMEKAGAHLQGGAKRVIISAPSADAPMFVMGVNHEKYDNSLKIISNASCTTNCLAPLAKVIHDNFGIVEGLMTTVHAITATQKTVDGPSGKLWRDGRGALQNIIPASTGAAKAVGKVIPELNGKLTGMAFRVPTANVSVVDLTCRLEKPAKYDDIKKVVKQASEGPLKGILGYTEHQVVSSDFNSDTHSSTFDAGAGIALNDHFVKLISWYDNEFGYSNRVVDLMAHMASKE
Method: Cells were plated at a concentration of 30,000 cells per well and grown overnight. Cells were treated with 100 μM IPA/NO-aspirin and DEA/NO-aspirin for 1, 3, and 6 h after which 200 μL of KDalert lysis buffer was added to each well. The plate was incubated at 4° C. for 20 min to lyse the cells. 10 μL of cell lysate was transferred to a clean 96 well plate and 90 μL of KDalert mastermix was added to each well and the fluorescence was measured at excitation of 540 nm and emission of 570 nm.

[4] = test system: MB-231 breast cancer cell lines; test: DAF assay of cell membrane penetration, MB-231; settings: MB-231 cell line
Method: Intracellular NO/HNO release from the derivatized NSAIDs was determined using 4-amino-5-methylamino-2′,7′-difluorofluoroescein diacetate (DAF-FM diacetate) as in Example 9.

HUVEC cells = test: Tube formation (angiogenesis) on Matrigel; type: cell-based; settings: 12 h, even at 1 μM, compared to control
Method: To determine the effect of NO and HNO releasing aspirin on angiogenesis, HUVEC cells were treated with the compounds and tube formation was studied after 12 h. Matrigel (50 μL) was added to each well in a 96 well plate and incubated for 2 h at 37° C. Cell suspension treated with different concentrations of IPA/NO-aspirin, DEA/NO-aspirin and controls was added to each well at a concentration of 20,000 cells per well. After 12 hours, tube formation was measured using a microscope.

[5] = NO release measured with NO specific electrode, 2% serum; type: physicochemical; settings: 100 μM; for NO release: 2% serum; for [NO]pA: phosphate buffer pH 7.4, 2% serum
Method: The release of NO was evaluated using an NO specific electrode. The NO electrode was stabilized in phosphate buffer pH 7.4 containing 2% serum. Compounds 4 and 8 in DMSO were added and the NO signal was measured. The experiment was repeated in the presence of 1 mM sodium ferricyanide.
Since there is no direct method for detection of HNO, 1 mM ferricyanide solution was used, which converts HNO to NO that can then be detected using NO electrode. K3Fe(CN)6+HNO ? NO

MB-468 cells = test: MTT cell survival, MDA-MB-468; type: cell-based, human; settings: MTT assay
Method: MDA-MB-231, MCF-7 and MDA-MB-468, human breast carcinoma cell lines and MCF-10A, breast […] (American Type Culture Collection, Manassas, Va.) were grown as monolayers in RPMI 1640 supplemented with 10% FCS (Hyclone), penicillin (50 units/ml), streptomycin ([…]; Life Technologies, Inc., Grand Island, N.Y.) and endothelial growth media (Lonanza) respectively. Cells were seeded at a density of 1×10^6 cells/100-cm^2 culture dish and incubated at 37° C. in 5% CO2 and 80% relative humidity. Single-cell suspensions were obtained by trypsinization (0.05% trypsin/EDTA), and cells were counted using a Beckman cell counter.
1000× stock solutions aspirin, of a DEA/NO-ASA, and IPA/NO-ASA were made in DMSO and final concentration in the media or PBS was adjusted to 0.1% DMSO.
The effect of NONO-aspirin on cell proliferation was studied using an MTT assay. The effect of DEA/NO-ASA, IPA/NO-ASA, aspirin, IPA/NO and DEA/NO was measured using the MTT assay. Cells were plated at a concentration of 8,000-10,000 cells per well in a 96 well plate and grown overnight. Cells were treated with different concentrations of the compounds and controls for 48 h. After 48 h, a solution of 5 mg/ml MTT was added to each well and incubated for 1 h. Then the media was removed from each well and 100 uL DMSO was added to each well and the absorbance was read at 550 nm. […]

A549 cells = test: Intracellular NO/HNO by DAF-FM diacetate in A549 cells; type: cell-based
Method: The intracellular NO and HNO were determined by using 4-amino-5-methylamino-2′,7′-difluorofluorescein diacetate (DAF-FM diacetate) as the reporter molecule. Cells were plated at a concentration of 30,000 cells per well in a 96 cell plate and grown overnight. Then DAF-FM diacetate in DMSO was added to each well with a final concentration of 10 μM and incubated for 30 min. Each well was washed three times with PBS pH 7.4. The desired compound was then added and the fluorescence was measured at an excitation of 485 nm and emission of 535 nm using PerkinElmer HTS 7000 plate reader.
Both NO and HNO increased the fluorescence of DAF. The NO/HNO release profiles for compounds 4 and 8 within A549 cells were determined by loading the cells with DAF-FM diacetate, a cell permeable dye, which is cleaved by esterase to form DAF-FM and reacts with NO to form benzotriazole derivative with an excitation of 495 nm and emission of 515 nm (Kojima et al., Chemical & Pharm. Bulletin, 462 373-75 (1998)). […] Both 4 and 8 show temporal release in the presence and absence of cells. […] Moreover, when DAF-FM diacetate is present both inside and outside the cells, the fluorescence intensity is ten times higher than that without cells.

COX-2 mRNA = test: COX mRNA levels; type: cell-based; settings: Control 1.0
Description: PGE2 levels are a direct measure of COX-2 activity. […] Increased COX-2 expression in the presence of aspirin has been reported previously (Davies et al., Alimentary Pharm. & Ther. 11(6):1101-08 (1997))). Both DEA/NO and DEA/NO-aspirin seem to augment the effect of aspirin while IPA/NO and IPA/NO-aspirin nullifies the effect and brings it back to the control level (Table 3).

SMILES	Caspase-3 Activity (caspase-3 [1]; MDA-MB-231, 25 μM) [U/mL]	Caspase-3 Activity (caspase-3 [1]; MDA-MB-231, 50 μM) [U/mL]	Caspase-3 Activity (caspase-3 [1]; MDA-MB-231, 100 μM) [U/mL]	Caspase-3 Activity (caspase-3 [2]; MDA-MB-468, 25 μM) [U/mL]	Caspase-3 Activity (caspase-3 [2]; MDA-MB-468, 50 μM) [U/mL]	Caspase-3 Activity (caspase-3 [2]; MDA-MB-468, 100 μM) [U/mL]	GAPDH Activity ([3]; 1 h) [U/mL]	GAPDH Activity ([3]; 3 h) [U/mL]	GAPDH Activity ([3]; 6 h) [U/mL]	cell membrane penetration [4]	angiogenesis (tube formation) (HUVEC cells)	NO release [5]	[NO]pA ([5]; +Ferricyanide 1 mM) [pA]	[NO]pA ([5]; without ferricyanide) [pA]	IC50 (MB-468 cells) [µM]	cell penetration (A549 cells)	cell penetration (A549 cells; listed as 4)	COX-2 mRNA level relative to control (COX-2 mRNA)	cell penetration (A549 cells; listed as 8)
CC(=O)Oc1ccccc1C(=O)OCON=[N+]([O-])NC(C)C [IPA/NO-aspirin, O^2-(Acetylsalicyloyloxymethyl)-1-(N-isopropylamino)-diazen-1-ium-1,2-diolate]	0.40	0.48	0.55	0.60	0.60	0.50	<0.010	<0.010	<0.010	penetrated cell membranes	reduced angiogenesis	significantly lower NO production	2100	1000	80	permeated the cell membrane with minimal decomposition	penetrate the cells	0.8	
CCN(CC)[N+]([O-])=NOCOC(=O)c1ccccc1OC(C)=O [DEA/NO-aspirin, O^2-(Acetylsalicyloyloxymethyl)-1-(N,N-Diethylamino)-diazen-1-ium-1,2-diolate]	0.25	0.24	0.31	0.40	0.38	0.81	0.080	0.110	0.130	penetrated cell membranes	reduced angiogenesis	readily released NO	5000	4600	85	permeated the cell membrane with minimal decomposition		6.5	penetrate the cells
